Columns and labels:
[1] = target: YEATS domain-containing protein 4 (Homo sapiens) (UniProt O95619); assay: Thermal Shift Assay. Domain: start/stop V16-K225; conditions: Compound concentration 25.0 uM, Protein concentration 2.0 uM
Peregrin (Homo sapiens) = target: T1, Peregrin (Homo sapiens) (UniProt P55201); conditions: Compound concentration 20.0 uM, Protein concentration 2.0 uM, Result type QC Liability
T1 sequence (whole entry): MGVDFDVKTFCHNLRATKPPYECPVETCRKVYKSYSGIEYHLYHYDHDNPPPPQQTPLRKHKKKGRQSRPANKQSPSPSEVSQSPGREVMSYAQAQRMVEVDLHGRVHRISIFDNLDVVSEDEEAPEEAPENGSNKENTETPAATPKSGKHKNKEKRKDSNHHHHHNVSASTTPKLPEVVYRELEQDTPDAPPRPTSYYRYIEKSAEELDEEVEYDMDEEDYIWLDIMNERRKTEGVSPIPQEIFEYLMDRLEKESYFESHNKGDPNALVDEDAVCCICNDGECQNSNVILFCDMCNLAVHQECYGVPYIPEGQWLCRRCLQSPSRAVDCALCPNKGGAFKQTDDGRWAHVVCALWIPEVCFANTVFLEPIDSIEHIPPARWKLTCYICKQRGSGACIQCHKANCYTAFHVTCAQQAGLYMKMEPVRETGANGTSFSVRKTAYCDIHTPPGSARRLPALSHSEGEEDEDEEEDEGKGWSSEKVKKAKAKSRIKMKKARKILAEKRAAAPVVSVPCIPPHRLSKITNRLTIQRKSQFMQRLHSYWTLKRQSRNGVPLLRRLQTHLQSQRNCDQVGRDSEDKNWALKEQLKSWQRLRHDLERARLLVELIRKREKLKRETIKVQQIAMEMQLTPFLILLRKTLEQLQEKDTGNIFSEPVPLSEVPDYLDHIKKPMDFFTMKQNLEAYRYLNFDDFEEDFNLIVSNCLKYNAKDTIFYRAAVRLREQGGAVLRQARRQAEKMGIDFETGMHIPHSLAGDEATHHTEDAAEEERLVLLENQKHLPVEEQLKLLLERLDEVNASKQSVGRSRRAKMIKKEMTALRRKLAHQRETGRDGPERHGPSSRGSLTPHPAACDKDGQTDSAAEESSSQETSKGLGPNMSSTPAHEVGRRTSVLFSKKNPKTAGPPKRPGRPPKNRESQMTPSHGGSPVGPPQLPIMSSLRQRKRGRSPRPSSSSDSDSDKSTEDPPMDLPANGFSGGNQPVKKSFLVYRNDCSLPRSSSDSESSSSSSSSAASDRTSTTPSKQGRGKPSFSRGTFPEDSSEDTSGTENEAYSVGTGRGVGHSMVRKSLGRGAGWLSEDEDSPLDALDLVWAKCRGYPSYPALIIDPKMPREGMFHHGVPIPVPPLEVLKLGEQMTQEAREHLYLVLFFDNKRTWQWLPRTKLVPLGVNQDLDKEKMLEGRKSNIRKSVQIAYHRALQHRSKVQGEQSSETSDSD

[2] = target: T2, Protein AF-9 (Homo sapiens) (UniProt P42568); conditions: Compound concentration 25.0 uM, Protein concentration 2.0 uM
T2 sequence (whole entry): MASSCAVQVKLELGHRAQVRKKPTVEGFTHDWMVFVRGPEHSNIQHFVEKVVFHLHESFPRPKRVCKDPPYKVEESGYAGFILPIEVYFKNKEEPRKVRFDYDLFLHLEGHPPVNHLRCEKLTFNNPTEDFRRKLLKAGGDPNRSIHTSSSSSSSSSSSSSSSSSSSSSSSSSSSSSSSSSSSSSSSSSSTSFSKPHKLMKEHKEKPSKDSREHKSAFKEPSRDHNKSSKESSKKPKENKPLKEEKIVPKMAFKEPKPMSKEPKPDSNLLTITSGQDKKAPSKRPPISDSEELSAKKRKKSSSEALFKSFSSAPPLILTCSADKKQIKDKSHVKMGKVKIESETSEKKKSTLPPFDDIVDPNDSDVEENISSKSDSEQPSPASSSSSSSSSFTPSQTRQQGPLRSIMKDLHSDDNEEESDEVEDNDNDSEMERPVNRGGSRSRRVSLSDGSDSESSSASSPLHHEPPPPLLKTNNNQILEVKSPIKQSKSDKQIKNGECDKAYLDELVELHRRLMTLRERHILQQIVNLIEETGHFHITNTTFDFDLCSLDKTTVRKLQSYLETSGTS
Description: Thermal Shift Assay. Domain: start/stop M1-D141

Chain of YEATS domain-containing protein 4 (Homo sapiens) (O95619 whole entry, the tested form may be a part): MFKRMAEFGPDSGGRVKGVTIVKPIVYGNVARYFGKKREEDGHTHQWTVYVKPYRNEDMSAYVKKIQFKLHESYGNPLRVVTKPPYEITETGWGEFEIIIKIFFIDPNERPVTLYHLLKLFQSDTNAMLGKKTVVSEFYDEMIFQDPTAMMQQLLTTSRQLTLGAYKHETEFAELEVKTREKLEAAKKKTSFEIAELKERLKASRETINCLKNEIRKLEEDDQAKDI

ΔTm [1]: -0.19 c
ΔTm (Peregrin (Homo sapiens)): -0.349 c
ΔTm [2]: 5.15 c
SMILES: CN(C)C(=O)c1ccc(-c2cc(C(=O)N[C@@H]3CCc4ccccc43)no2)cc1O

Reference: ChEMBL document CHEMBL5058541, “EUbOPEN Chemogenomics Library 2 (NanoBRET)” (2022)
